Source: ChEMBL document CHEMBL3758169, “4-Aminoindazolyl-dihydrofuro[3,4-d]pyrimidines as non-covalent inhibitors of mutant epidermal growth factor receptor tyrosine kinase” (Bioorg Med Chem Lett, 2016)

What was measured:
[1] = target: Phosphorylase b kinase gamma catalytic chain, liver/testis isoform (Homo sapiens) (UniProt P15735); assay: Inhibition of PHKgamma2 (unknown origin) at 100 nM
[2] = target: Activated CDC42 kinase 1 (Homo sapiens) (UniProt Q07912); assay: Inhibition of TNK2 (unknown origin) at 100 nM
[3] = target: Casein kinase I isoform delta (Homo sapiens) (UniProt P48730); assay: Inhibition of CK1delta (unknown origin) at 100 nM
[4] = target: Serine/threonine-protein kinase SIK2 (Homo sapiens) (UniProt Q9H0K1); assay: Inhibition of SIK2 (unknown origin) at 100 nM
[5] = target: Dual specificity protein kinase CLK2 (Homo sapiens) (UniProt P49760); assay: Inhibition of CLK2 (unknown origin) at 100 nM
[6] = target: Death-associated protein kinase 1 (Homo sapiens) (UniProt P53355); assay: Inhibition of DAPK1 (unknown origin) at 100 nM
[7] = test system: Mast/stem cell growth factor receptor Kit (Homo sapiens), P10721 [T670I]; assay: Inhibition of KIT T670I mutant (unknown origin) at 100 nM
[8] = target: CDK9/Cyclin K (Homo sapiens) (UniProt P50750+O75909); assay: Inhibition of CDK9/cyclinK (unknown origin) at 100 nM; format: protein-complex assay
[9] = target: Ephrin type-A receptor 4 (Homo sapiens) (UniProt P54764); assay: Inhibition of EPHA4 (unknown origin) at 100 nM
[10] = target: Proto-oncogene tyrosine-protein kinase ROS (Homo sapiens) (UniProt P08922); assay: Inhibition of ROS (unknown origin) at 100 nM
[11] = target: Tyrosine-protein kinase receptor TYRO3 (Homo sapiens) (UniProt Q06418); assay: Inhibition of RSE (unknown origin) at 100 nM
Homo sapiens = species on record: Homo sapiens; assay: Inhibition of SRM (unknown origin) at 100 nM
[12] = target: 5'-AMP-activated protein kinase catalytic subunit alpha-2 (Homo sapiens) (UniProt P54646); assay: Inhibition of PRKAA2 (unknown origin) at 100 nM
[13] = target: Calcium/calmodulin-dependent protein kinase type II subunit delta (Homo sapiens) (UniProt Q13557); assay: Inhibition of CamKIIdelta (unknown origin) at 100 nM
[14] = target: Testis-specific serine/threonine-protein kinase 2 (Homo sapiens) (UniProt Q96PF2); assay: Inhibition of TSSK2 (unknown origin) at 100 nM
[15] = target: Mitogen-activated protein kinase 11 (Homo sapiens) (UniProt Q15759); assay: Inhibition of p38beta(unknown origin) at 100 nM
[16] = target: Dual specificity mitogen-activated protein kinase kinase 2 (Homo sapiens) (UniProt P36507); assay: Inhibition of MEK2 (unknown origin) at 100 nM
[17] = Oral bioavailability in rat at 5 mg/kg; format: ADME, organism-based; conditions: in vivo
[18] = target: Phosphatidylinositol 4,5-bisphosphate 3-kinase catalytic subunit delta isoform (Homo sapiens) (UniProt O00329); assay: Inhibition of PI3KD (unknown origin) at 100 nM
[19] = target: Myosin light chain kinase, smooth muscle (Homo sapiens) (UniProt Q15746); assay: Inhibition of MYLK (unknown origin) at 100 nM
[20] = target: Serine/threonine-protein kinase PLK2 (Homo sapiens) (UniProt Q9NYY3); assay: Inhibition of PLK2 (unknown origin) at 100 nM
[21] = target: Ephrin type-B receptor 2 (Homo sapiens) (UniProt P29323); assay: Inhibition of EPHB2 (unknown origin) at 100 nM
[22] = target: Sphingosine kinase 2 (Homo sapiens) (UniProt Q9NRA0); assay: Inhibition of SPHK2 (unknown origin) at 100 nM
[23] = target: Homeodomain-interacting protein kinase 2 (Homo sapiens) (UniProt Q9H2X6); assay: Inhibition of HIPK2 (unknown origin) at 100 nM
[24] = target: Serine/threonine-protein kinase Chk2 (Homo sapiens) (UniProt O96017); assay: Inhibition of CHK2 (unknown origin) at 100 nM
[25] = target: Serine/threonine-protein kinase Nek4 (Homo sapiens) (UniProt P51957); assay: Inhibition of NEK4 (unknown origin) at 100 nM
[26] = target: Dual specificity tyrosine-phosphorylation-regulated kinase 1A (Homo sapiens) (UniProt Q13627); assay: Inhibition of DYRK1A (unknown origin) at 100 nM
[27] = target: Phosphatidylinositol 4-kinase beta (Homo sapiens) (UniProt Q9UBF8); assay: Inhibition of PI4Kb (unknown origin) at 100 nM
[28] = target: cGMP-dependent protein kinase 2 (Homo sapiens) (UniProt Q13237); assay: Inhibition of PKG2 (unknown origin) at 100 nM
[29] = target: Serine/threonine-protein kinase 4 (Homo sapiens) (UniProt Q13043); assay: Inhibition of MST1 (unknown origin) at 100 nM
[30] = target: DNA-dependent protein kinase catalytic subunit (Homo sapiens) (UniProt P78527); assay: Inhibition of DNA-PK (unknown origin) at 100 nM
[31] = target: Serine/threonine-protein kinase PAK 6 (Homo sapiens) (UniProt Q9NQU5); assay: Inhibition of PAK6 (unknown origin) at 100 nM
[32] = target: Bone morphogenetic protein receptor type-1A (Homo sapiens) (UniProt P36894); assay: Inhibition of BMPR1A (unknown origin) at 100 nM
[33] = target: Protein kinase C gamma type (Homo sapiens) (UniProt P05129); assay: Inhibition of PKCgamma (unknown origin) at 100 nM
[34] = target: Ephrin type-A receptor 1 (Homo sapiens) (UniProt P21709); assay: Inhibition of EPHA1 (unknown origin) at 100 nM
[35] = target: Homeodomain-interacting protein kinase 3 (Homo sapiens) (UniProt Q9H422); assay: Inhibition of HIPK3 (unknown origin) at 100 nM
[36] = target: Activin receptor type-2B (Homo sapiens) (UniProt Q13705); assay: Inhibition of ACVR2B (unknown origin) at 100 nM
[37] = target: Serine/threonine-protein kinase TAO1 (Homo sapiens) (UniProt Q7L7X3); assay: Inhibition of TAO1 (unknown origin) at 100 nM
[38] = target: Tyrosine-protein kinase Tec (Homo sapiens) (UniProt P42680); assay: Inhibition of TEC (unknown origin) at 100 nM
Rattus norvegicus = assay: Unbound AUC in rat at 5 mg/kg, po; format: ADME, organism-based; conditions: in vivo
[39] = target: cAMP-dependent protein kinase catalytic subunit PRKX (Homo sapiens) (UniProt P51817); assay: Inhibition of PRKX (unknown origin) at 100 nM
[40] = target: Dual specificity protein kinase CLK1 (Homo sapiens) (UniProt P49759); assay: Inhibition of CLK1 (unknown origin) at 100 nM
[41] = target: Mitogen-activated protein kinase 9 (Homo sapiens) (UniProt P45984); assay: Inhibition of JNK2 (unknown origin) at 100 nM
[42] = target: Mitogen-activated protein kinase kinase kinase 20 (Homo sapiens) (UniProt Q9NYL2); assay: Inhibition of ZAK (unknown origin) at 100 nM

Sequence of Tyrosine-protein kinase receptor TYRO3 (Homo sapiens) (Q06418 whole entry): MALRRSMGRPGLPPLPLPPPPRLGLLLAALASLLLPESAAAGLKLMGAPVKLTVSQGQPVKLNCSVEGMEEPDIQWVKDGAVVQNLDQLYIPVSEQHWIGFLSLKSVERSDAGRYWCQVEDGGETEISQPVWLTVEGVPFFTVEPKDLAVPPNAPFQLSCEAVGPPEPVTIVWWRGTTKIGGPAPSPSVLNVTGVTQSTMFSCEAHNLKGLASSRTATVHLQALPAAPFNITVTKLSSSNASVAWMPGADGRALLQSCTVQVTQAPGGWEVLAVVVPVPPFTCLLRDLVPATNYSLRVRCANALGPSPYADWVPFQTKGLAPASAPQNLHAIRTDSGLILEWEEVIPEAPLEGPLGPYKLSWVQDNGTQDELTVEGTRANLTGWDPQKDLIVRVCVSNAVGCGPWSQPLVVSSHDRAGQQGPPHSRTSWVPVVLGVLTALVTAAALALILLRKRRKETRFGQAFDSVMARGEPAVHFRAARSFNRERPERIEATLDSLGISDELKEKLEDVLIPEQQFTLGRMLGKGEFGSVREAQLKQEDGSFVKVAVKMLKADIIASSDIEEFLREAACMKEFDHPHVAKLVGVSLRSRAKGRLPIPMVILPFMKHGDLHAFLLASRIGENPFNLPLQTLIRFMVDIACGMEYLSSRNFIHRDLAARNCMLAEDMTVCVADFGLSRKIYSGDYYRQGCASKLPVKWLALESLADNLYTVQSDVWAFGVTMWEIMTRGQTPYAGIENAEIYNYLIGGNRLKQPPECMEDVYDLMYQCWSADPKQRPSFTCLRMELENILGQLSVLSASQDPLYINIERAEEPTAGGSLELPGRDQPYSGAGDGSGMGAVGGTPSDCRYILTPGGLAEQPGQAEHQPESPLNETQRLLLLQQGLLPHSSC
Sequence of Phosphatidylinositol 4-kinase beta (Homo sapiens) (Q9UBF8 2-816 limits assumed): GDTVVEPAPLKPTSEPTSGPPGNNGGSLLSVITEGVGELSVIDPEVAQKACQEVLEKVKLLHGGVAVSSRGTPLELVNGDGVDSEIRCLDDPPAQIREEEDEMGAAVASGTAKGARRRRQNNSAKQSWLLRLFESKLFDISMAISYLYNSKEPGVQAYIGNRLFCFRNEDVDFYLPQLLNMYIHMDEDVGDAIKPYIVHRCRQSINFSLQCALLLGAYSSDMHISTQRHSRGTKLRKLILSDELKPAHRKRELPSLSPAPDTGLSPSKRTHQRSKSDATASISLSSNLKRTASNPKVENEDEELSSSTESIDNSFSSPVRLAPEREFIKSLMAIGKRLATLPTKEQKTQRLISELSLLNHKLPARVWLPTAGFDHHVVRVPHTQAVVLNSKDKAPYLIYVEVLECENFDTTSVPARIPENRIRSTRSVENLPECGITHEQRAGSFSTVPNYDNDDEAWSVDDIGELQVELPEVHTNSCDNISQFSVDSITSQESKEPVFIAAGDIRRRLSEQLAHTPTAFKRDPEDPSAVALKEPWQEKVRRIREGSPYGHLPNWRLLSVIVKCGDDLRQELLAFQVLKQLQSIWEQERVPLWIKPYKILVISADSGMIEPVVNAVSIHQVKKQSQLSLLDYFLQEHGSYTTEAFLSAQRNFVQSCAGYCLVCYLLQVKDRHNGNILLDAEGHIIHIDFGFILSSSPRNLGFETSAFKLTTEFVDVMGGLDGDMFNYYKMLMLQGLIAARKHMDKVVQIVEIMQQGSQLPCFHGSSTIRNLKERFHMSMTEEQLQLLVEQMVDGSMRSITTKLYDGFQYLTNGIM
Sequence of Homeodomain-interacting protein kinase 2 (Homo sapiens) (Q9H2X6 whole entry, looked up): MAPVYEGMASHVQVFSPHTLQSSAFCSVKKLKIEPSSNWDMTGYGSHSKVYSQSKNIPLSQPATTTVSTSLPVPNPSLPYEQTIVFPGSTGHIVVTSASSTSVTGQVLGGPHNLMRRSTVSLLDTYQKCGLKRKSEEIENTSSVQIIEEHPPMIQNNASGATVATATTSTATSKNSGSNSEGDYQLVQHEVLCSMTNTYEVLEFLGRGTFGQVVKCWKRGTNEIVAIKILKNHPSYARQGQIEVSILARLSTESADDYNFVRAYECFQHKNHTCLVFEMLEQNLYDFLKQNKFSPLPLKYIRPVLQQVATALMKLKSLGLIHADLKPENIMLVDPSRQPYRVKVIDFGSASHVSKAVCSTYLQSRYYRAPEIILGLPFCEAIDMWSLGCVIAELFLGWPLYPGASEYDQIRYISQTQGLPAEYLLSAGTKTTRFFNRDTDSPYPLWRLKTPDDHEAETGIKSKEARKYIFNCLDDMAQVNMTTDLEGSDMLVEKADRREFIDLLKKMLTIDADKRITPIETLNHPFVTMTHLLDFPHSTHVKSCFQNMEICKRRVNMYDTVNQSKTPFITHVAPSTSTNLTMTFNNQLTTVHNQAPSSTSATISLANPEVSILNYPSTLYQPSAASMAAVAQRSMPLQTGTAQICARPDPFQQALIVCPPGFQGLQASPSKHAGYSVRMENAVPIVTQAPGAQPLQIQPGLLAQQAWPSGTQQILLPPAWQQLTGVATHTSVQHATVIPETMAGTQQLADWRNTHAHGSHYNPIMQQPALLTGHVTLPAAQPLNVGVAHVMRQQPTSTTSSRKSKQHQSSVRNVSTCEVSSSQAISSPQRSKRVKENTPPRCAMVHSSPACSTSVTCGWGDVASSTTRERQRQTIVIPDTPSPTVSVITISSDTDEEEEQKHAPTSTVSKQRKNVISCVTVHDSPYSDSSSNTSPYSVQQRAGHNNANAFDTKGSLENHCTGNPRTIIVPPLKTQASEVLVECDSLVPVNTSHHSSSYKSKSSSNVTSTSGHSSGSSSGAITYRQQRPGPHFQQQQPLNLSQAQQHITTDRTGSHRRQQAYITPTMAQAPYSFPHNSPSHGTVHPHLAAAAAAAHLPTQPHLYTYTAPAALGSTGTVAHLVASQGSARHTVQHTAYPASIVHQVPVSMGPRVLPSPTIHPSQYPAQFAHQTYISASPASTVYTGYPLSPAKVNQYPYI
Sequence of cGMP-dependent protein kinase 2 (Homo sapiens) (Q13237 whole entry): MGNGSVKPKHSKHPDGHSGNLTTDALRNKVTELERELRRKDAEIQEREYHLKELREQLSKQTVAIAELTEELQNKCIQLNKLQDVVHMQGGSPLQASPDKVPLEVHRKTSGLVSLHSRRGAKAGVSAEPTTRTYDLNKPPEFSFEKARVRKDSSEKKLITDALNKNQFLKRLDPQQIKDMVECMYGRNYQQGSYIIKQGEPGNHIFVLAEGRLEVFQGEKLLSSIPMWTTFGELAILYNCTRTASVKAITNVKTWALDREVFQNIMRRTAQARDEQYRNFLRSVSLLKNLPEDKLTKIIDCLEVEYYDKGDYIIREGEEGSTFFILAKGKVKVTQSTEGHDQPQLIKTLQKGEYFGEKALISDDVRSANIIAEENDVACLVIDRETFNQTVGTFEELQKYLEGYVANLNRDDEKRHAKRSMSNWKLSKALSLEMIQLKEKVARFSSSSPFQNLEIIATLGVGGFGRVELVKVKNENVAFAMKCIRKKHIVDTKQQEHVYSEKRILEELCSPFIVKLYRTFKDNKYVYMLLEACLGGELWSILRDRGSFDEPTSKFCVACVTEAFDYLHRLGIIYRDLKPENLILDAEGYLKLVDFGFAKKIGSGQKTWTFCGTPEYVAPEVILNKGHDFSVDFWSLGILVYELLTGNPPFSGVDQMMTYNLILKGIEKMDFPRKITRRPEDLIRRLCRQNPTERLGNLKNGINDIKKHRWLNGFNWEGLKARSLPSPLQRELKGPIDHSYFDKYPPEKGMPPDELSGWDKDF
Sequence of Serine/threonine-protein kinase TAO1 (Homo sapiens) (Q7L7X3 whole entry): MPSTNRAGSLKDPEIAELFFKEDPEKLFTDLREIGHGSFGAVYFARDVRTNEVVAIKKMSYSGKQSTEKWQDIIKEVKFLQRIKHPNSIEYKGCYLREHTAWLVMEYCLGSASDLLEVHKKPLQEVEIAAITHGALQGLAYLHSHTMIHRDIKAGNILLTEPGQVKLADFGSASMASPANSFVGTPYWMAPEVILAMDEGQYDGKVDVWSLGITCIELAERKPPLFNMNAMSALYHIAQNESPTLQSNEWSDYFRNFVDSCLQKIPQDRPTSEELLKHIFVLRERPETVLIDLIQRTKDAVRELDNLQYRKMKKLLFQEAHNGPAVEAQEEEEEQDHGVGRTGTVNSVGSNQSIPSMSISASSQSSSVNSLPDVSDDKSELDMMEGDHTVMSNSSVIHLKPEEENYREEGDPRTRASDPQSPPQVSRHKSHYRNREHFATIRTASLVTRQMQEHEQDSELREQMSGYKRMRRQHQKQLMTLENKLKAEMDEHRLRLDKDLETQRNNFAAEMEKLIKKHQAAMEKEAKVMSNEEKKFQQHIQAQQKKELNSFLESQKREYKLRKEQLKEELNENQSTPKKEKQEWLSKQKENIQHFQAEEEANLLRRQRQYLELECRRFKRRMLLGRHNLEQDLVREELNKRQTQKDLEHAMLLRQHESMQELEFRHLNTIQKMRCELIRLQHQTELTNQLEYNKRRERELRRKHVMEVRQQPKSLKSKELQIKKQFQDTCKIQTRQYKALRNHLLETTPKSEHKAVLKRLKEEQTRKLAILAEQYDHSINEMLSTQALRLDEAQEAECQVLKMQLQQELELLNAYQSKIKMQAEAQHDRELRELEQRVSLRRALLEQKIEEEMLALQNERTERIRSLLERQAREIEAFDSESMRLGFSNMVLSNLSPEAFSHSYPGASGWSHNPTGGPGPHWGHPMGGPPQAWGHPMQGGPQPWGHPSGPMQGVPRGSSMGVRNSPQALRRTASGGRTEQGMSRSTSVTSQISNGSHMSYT
Sequence of Phosphorylase b kinase gamma catalytic chain, liver/testis isoform (Homo sapiens) (P15735 whole entry, canonical isoform): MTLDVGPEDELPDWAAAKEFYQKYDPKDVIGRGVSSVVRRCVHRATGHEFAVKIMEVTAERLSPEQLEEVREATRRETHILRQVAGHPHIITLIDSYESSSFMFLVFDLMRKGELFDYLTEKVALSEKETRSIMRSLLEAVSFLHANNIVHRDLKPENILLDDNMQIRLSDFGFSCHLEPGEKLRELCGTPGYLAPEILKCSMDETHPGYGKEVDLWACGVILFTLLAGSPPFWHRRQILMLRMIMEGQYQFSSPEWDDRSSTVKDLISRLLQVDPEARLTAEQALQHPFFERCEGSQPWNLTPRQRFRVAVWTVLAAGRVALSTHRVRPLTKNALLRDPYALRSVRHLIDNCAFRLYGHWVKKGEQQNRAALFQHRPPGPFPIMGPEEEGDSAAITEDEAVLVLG

Question: With `CC1(C)OCc2c(Nc3n[nH]c4ccccc34)nc(-c3cn[nH]c3)nc21` as the compound, how does the inhibition [1] read?
Answer: Its inhibition is -2.9%.

Question: What about the inhibition [2] of the same compound?
Answer: Its inhibition is 7.8%.

Question: And the inhibition [3]?
Answer: Its inhibition is 13.1%.

Question: And the inhibition [4]?
Answer: Its inhibition is 35.3%.

Question: And the inhibition [5]?
Answer: The inhibition was -3.6%.

Question: And the inhibition [6]?
Answer: The inhibition was 2.2%.

Question: What about the inhibition [7] of the same compound?
Answer: The inhibition was 17.9%.

Question: What about the inhibition [8] of the same compound?
Answer: Its inhibition is -3.7%.

Question: What about the inhibition [9] of the same compound?
Answer: The inhibition was 23.1%.

Question: And the inhibition [10]?
Answer: The inhibition was 11.4%.

Question: And the inhibition [11]?
Answer: Its inhibition is 5.8%.

Question: What about the inhibition (Homo sapiens) of the same compound?
Answer: Its inhibition is 17.3%.

Question: And the inhibition [12]?
Answer: Its inhibition is 10.9%.

Question: What about the inhibition [13] of the same compound?
Answer: The inhibition was -4.2%.

Question: And the inhibition [14]?
Answer: Its inhibition is 4%.

Question: And the inhibition [15]?
Answer: The inhibition was 8.7%.

Question: What about the inhibition [16] of the same compound?
Answer: The inhibition was 12.8%.

Question: What about the bioavailability [17] of the same compound?
Answer: The bioavailability was 13%.

Question: What about the inhibition [18] of the same compound?
Answer: The inhibition was -7.6%.

Question: What about the inhibition [19] of the same compound?
Answer: The inhibition was 2.8%.

Question: And the inhibition [20]?
Answer: Its inhibition is 5.5%.

Question: What about the inhibition [21] of the same compound?
Answer: The inhibition was 15.3%.

Question: What about the inhibition [22] of the same compound?
Answer: The inhibition was -9.8%.

Question: What about the inhibition [23] of the same compound?
Answer: The inhibition was 1.3%.

Question: And the inhibition [24]?
Answer: Its inhibition is -1.3%.

Question: And the inhibition [25]?
Answer: The inhibition was 2%.

Question: And the inhibition [26]?
Answer: Its inhibition is 9.6%.

Question: What about the inhibition [27] of the same compound?
Answer: The inhibition was 10.1%.

Question: What about the inhibition [28] of the same compound?
Answer: Its inhibition is -8.9%.

Question: And the inhibition [29]?
Answer: The inhibition was 13.1%.

Question: What about the inhibition [30] of the same compound?
Answer: The inhibition was 7.5%.

Question: And the inhibition [31]?
Answer: Its inhibition is -0.3%.

Question: And the inhibition [32]?
Answer: The inhibition was 16.8%.

Question: And the inhibition [33]?
Answer: The inhibition was 16.4%.

Question: And the inhibition [34]?
Answer: Its inhibition is 16.1%.

Question: And the inhibition [35]?
Answer: Its inhibition is 8.6%.

Question: What about the inhibition [36] of the same compound?
Answer: The inhibition was 96.8%.

Question: What about the inhibition [37] of the same compound?
Answer: The inhibition was 0.7%.

Question: And the inhibition [38]?
Answer: The inhibition was 0.1%.

Question: And the fAUC (Rattus norvegicus)?
Answer: Its fAUC is 0.05 µM·h.

Question: What about the inhibition [39] of the same compound?
Answer: Its inhibition is 8.4%.

Question: What about the inhibition [40] of the same compound?
Answer: Its inhibition is 7.3%.

Question: And the inhibition [41]?
Answer: The inhibition was 44.8%.

Question: And the inhibition [42]?
Answer: The inhibition was 11.4%.
